Measurements reported in ChEMBL document CHEMBL2074104, “Interaction of cysteine conjugates with human and rabbit organic anion transporter 1” (J Pharmacol Exp Ther, 2003).

Columns and labels:
[1] = biological target: T1, Solute carrier family 22 member 6 (Homo sapiens, UniProt Q4U2R8); assay: TP_TRANSPORTER: inhibition of PAH uptake in OAT1-expressing CHO cells; format: functional, cell-based
T1 sequence (Q4U2R8 whole entry): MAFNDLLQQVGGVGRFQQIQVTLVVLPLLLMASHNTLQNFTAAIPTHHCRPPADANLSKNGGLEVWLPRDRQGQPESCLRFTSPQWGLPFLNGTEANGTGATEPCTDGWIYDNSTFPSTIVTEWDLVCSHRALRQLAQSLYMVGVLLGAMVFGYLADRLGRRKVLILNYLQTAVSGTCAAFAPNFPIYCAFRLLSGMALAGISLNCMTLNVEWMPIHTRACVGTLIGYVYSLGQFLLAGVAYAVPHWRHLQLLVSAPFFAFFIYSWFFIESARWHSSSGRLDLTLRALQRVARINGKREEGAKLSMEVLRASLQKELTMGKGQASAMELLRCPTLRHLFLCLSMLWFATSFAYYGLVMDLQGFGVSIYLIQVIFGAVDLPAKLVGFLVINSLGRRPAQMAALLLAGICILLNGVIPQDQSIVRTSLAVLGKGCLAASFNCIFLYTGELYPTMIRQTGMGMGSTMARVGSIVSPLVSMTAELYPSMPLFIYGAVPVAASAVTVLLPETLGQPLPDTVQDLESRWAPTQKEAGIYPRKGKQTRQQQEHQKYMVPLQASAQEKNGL

[2] = biological target: T1, Solute carrier family 22 member 6; assay: TP_TRANSPORTER: inhibition of PAH uptake in OAT1-COS7 cells; format: functional, cell-based, COS-7
[3] = biological target: T1, Solute carrier family 22 member 6; assay: TP_TRANSPORTER: trans-stimulation in OAT1-COS7 cells; format: functional, cell-based, COS-7

Structure (SMILES): N[C@@H](CSc1nc2ccccc2s1)C(=O)O
- IC50 [1]: 9.9 µM

Structure (SMILES): N[C@H](CS/C(Cl)=C/Cl)C(=O)O
- IC50 [2]: 208 µM

Structure (SMILES): N[C@H](CSc1nc2ccccc2s1)C(=O)O [BENZOTHIAZOLYLCYSTEINE]
- IC50 [3]: 9.9 µM
